Here are results for one compound from paper PMC3648344 (BMC Structural Biology, 2013).

In the assay the target is T1, ypMnmC (Yersinia pestis, UniProt Q8ZD36).
T1 construct: gene mnmC
Conditions: selenomethionyl protein; co-purified FAD, none added; MnmC1 domain site; also in 3SGL with SAM.

SMILES strings stand for the structures.

T1 sequence (Q8ZD36 whole entry, looked up): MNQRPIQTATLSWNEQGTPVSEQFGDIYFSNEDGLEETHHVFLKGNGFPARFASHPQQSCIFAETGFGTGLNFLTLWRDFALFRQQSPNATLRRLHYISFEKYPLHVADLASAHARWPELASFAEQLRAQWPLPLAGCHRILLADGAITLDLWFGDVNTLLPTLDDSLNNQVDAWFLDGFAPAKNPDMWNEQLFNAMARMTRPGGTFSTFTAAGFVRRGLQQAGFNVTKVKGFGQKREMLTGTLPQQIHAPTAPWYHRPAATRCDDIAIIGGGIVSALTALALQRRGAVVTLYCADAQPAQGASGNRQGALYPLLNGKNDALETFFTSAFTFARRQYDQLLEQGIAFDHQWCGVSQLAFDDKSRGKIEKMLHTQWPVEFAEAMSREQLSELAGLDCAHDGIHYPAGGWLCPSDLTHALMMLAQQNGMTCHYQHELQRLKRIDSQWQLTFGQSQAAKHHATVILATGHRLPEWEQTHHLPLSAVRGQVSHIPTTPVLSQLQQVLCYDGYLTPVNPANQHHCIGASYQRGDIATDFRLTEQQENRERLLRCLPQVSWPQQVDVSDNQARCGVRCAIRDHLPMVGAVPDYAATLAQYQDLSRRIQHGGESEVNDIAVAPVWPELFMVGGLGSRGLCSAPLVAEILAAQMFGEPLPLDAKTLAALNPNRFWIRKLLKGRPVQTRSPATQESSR

As to `Cc1cc2nc3c(=O)[nH]c(=O)nc-3n(C[C@H](O)[C@H](O)[C@H](O)COP(=O)(O)OP(=O)(O)OC[C@H]3O[C@@H](n4cnc5c(N)ncnc54)[C@H](O)[C@@H]3O)c2cc1C` [FAD], the “X-ray crystal structure, 2.30 Å” value was “All three MnmC structures unambiguously exhibited bound FAD (Figure 4A)”.
